This passage reports IC50 and melting point results from US20090270350A1, “Pyridinone Pyrazole Urea and Pyrimidinone Pyrazole Urea Derivatives” (PFIZER INC., priority 2006, published 2009).

The target in one data set is p38α (Homo sapiens, UniProt Q16539). The data set can be described thus: p38α/MK2 cascade assay. Format: biochemical. The settings on record: Table 1; inhibitors preincubated with p38α for 40 minutes; phosphorylation of Hsp27 peptide by MK-2, Caliper LabChip 3000; read-out: p38a/MK2 Cascade 40 min Pre-Incuabtion (% Inhibition): IC50. In short, it runs like this: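 In a cascade format, p38α was preincubated 40 min with inhibitor (1000–0.05 nM) before adding 1 nM nonactive MK2 (54-400), 5 μM MgATP and 0.5 μM FITC-Hsp27 peptide. Reaction ran 60 min in HEPES pH 7.5 with MgCl2, DTT, 2% DMSO, then EDTA-quenched. Peptide phosphorylation was measured by Caliper mobility shift to give IC50.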
p38α, sequence (Q16539 whole entry): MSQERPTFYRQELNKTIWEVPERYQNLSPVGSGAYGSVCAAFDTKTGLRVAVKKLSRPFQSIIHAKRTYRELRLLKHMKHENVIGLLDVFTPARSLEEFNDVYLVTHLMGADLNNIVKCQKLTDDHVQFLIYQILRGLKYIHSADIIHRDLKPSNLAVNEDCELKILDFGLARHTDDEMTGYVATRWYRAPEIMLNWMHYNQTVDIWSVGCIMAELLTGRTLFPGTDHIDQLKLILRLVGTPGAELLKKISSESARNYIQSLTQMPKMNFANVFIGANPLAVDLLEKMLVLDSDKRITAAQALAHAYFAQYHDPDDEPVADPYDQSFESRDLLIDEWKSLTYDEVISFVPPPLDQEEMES

Consider `Cc1ccc(C(=O)NC(C)C(N)=O)cc1-n1c(C)cc(OCc2ccccc2CNC(=O)Nc2cc(C(C)(C)C)nn2-c2ccc(O)c(Cl)c2)c(Cl)c1=O` (stereo in doubt) [Example 159, (R)-3-[4-(2-{3-[5-tert-butyl-2-(3-chloro-4-hydroxy-phenyl)-2H-pyrazol-3-yl]-ureidomethyl}-benzyloxy)-3-chloro-6-methyl-2-oxo-2H-pyridin-1-yl]-N-(1-carbamoyl-ethyl)-4-methyl-benzamide], for which the melting point (commonly the temperature, or range, at which the solid turns liquid) lay within 192 to 193 °C. Further, the IC50 on p38α was 2.5 nM.
With `CNC(=O)CNC(=O)c1ccc(C)c(-n2c(C)cc(OCc3ccccc3CNC(=O)Nc3cc(C(C)(C)C)nn3-c3ccc(O)c(Cl)c3)c(Cl)c2=O)c1` [Example 156, 3-[4-(2-{3-[5-tert-butyl-2-(3-chloro-4-hydroxy-phenyl)-2H-pyrazol-3-yl]-ureidomethyl}-benzyloxy)-3-chloro-6-methyl-2-oxo-2H-pyridin-1-yl]-4-methyl-N-methylcarbamoylmethyl-benzamide], the melting point lay in the range of 209 to 211 °C. Further, the IC50 on p38α was determined as 3.5 nM.
Take `Cc1ccc(C(=O)NCC(O)CO)cc1-n1c(C)cc(OCc2ccccc2CNC(=O)Nc2cc(C(C)(C)C)nn2-c2cccc(OCCO)c2)c(Cl)c1=O` (centres unmarked) [Example 134, 3-{4-[2-(3-{5-tert-Butyl-2-[3-(2-hydroxy-ethoxy)-phenyl]-2H-pyrazol-3-yl}-ureidomethyl)-benzyloxy]-3-chloro-6-methyl-2-oxo-2H-pyridin-1-yl}-N-(2,3-dihydroxy-propyl)-4-methyl-benzamide]: the melting point fell in the range of 158 to 160 °C.
Still for that read-out and setting: for `Cc1ccc(C(=O)NCC(O)CO)cc1-n1c(C)cc(OCc2ccccc2CNC(=O)Nc2cc(C(C)(C)C)nn2-c2ccc(Cl)c(O)c2)c(Cl)c1=O` (centres unmarked) [Example 168, 3-[4-(2-{3-[5-tert-Butyl-2-(4-chloro-3-hydroxy-phenyl)-2H-pyrazol-3-yl]-ureidomethyl}-benzyloxy)-3-chloro-6-methyl-2-oxo-2H-pyridin-1-yl]-N-(2,3-dihydroxy-propyl)-4-methyl-benzamide] the value was 169 to 171 °C; for `Cc1ccc(C(=O)NCCN(C)C)cc1-n1c(C)cc(OCc2ccccc2CNC(=O)Nc2cc(C(C)(C)C)nn2-c2ccc(Cl)c(O)c2)c(Cl)c1=O` [Example 165, 3-[4-(2-{3-[5-tert-butyl-2-(4-chloro-3-hydroxy-phenyl)-2H-pyrazol-3-yl]-ureidomethyl}-benzyloxy)-3-chloro-6-methyl-2-oxo-2H-pyridin-1-yl]-N-(2-dimethylamino-ethyl)-4-methyl-benzamide], 185 to 186 °C; for `Cc1ccc(C(=O)NCC(O)CO)cc1-n1c(C)cc(OCc2ccccc2CNC(=O)Nc2cc(C(C)(C)C)nn2-c2ccc(O)c(Cl)c2)c(Cl)c1=O` (centres unmarked) [Example 157, 3-[4-(2-{3-[5-tert-butyl-2-(3-chloro-4-hydroxy-phenyl)-2H-pyrazol-3-yl]-ureidomethyl}-benzyloxy)-3-chloro-6-methyl-2-oxo-2H-pyridin-1-yl]-N-(2,3-dihydroxy-propyl)-4-methyl-benzamide], 173 to 175 °C.
On the same count and under the same terms, for `Cc1ccc(C(=O)NCC(N)=O)cc1-n1c(C)cc(OCc2ccccc2CNC(=O)Nc2cc(C(C)(C)C)nn2-c2ccc(O)c(Cl)c2)c(Cl)c1=O` [Example 160, 3-[4-(2-{3-[5-tert-butyl-2-(3-chloro-4-hydroxy-phenyl)-2H-pyrazol-3-yl]-ureidomethyl}-benzyloxy)-3-chloro-6-methyl-2-oxo-2H-pyridin-1-yl]-N-carbamoylmethyl-4-methyl-benzamide] the value was 228 to 230 °C; for `Cc1ccc(C(=O)NCCO)cc1-n1c(C)cc(OCc2ccccc2CNC(=O)Nc2cc(C(C)(C)C)nn2-c2ccc(O)c(Cl)c2)c(Cl)c1=O` [Example 154, 3-[4-(2-{3-[5-tert-butyl-2-(3-chloro-4-hydroxy-phenyl)-2H-pyrazol-3-yl]-ureidomethyl}-benzyloxy)-3-chloro-6-methyl-2-oxo-2H-pyridin-1-yl]-N-(2-hydroxy-ethyl)-4-methyl-benzamide], 195 to 196 °C.
Compound `COC(=O)c1ccc(C)c(-n2c(C)cc(OCc3ccc(F)cc3CNC(=O)Nc3cc(C(C)(C)C)nn3-c3ccc(O)c(Cl)c3)c(Cl)c2=O)c1` [Example 140, 3-[4-(2-{3-[5-tert-butyl-2-(3-chloro-4-hydroxy-phenyl)-2H-pyrazol-3-yl]-ureidomethyl}-4-fluoro-benzyloxy)-3-chloro-6-methyl-2-oxo-2H-pyridin-1-yl]-4-methyl-benzoic acid methyl ester] displayed a melting point of 197 to 200 °C.
`COC(=O)c1ccc(C)c(-n2c(C)cc(OCc3ccccc3CNC(=O)Nc3cc(C(C)(C)C)nn3-c3ccc(Cl)c(O)c3)c(Cl)c2=O)c1` [Example 138, 3-[4-(2-{3-[5-tert-butyl-2-(4-chloro-3-hydroxy-phenyl)-2H-pyrazol-3-yl]-ureidomethyl}-benzyloxy)-3-chloro-6-methyl-2-oxo-2H-pyridin-1-yl]-4-methyl-benzoic acid methyl ester] yielded a melting point of 193 to 195 °C.
Compound `Cc1ccc(C(=O)NCCN(C)C)cc1-n1c(C)cc(OCc2ccc(F)cc2CNC(=O)Nc2cc(C(C)(C)C)nn2-c2cccc(OCCO)c2)c(Cl)c1=O` [Example 178] gave a melting point of 158 to 160 °C. For the same compound, the IC50 at p38α is 1.4 nM.
On to `Cc1ccc(C(=O)NCCN(C)C)cc1-n1c(C)cc(OCc2ccccc2CNC(=O)Nc2cc(C(C)(C)C)nn2-c2cccc(OCCO)c2)c(Cl)c1=O` [Example 174], for which the melting point was in the range of 164 to 165 °C.
The compound `COCCNC(=O)c1ccc(C)c(-n2c(C)cc(OCc3ccc(F)cc3CNC(=O)Nc3cc(C(C)(C)C)nn3-c3ccc(Cl)c(O)c3)c(Cl)c2=O)c1` [Example 164, 3-[4-(2-{3-[5-tert-butyl-2-(4-chloro-3-hydroxy-phenyl)-2H-pyrazol-3-yl]-ureidomethyl}-4-fluoro-benzyloxy)-3-chloro-6-methyl-2-oxo-2H-pyridin-1-yl]-N-(2-methoxy-ethyl)-4-methyl-benzamide] registered a melting point of 186 to 187 °C.
As for `COC(=O)c1ccc(C)c(-n2c(C)cc(OCc3ccc(F)cc3CNC(=O)Nc3cc(C(C)(C)C)nn3-c3ccc(O)cc3)c(Cl)c2=O)c1` [Example 136, 3-[4-(2-{3-[5-tert-butyl-2-(4-hydroxy-phenyl)-2H-pyrazol-3-yl]-ureidomethyl}-4-fluoro-benzyloxy)-3-chloro-6-methyl-2-oxo-2H-pyridin-1-yl]-4-methyl-benzoic acid methyl ester], the melting point lay in the range of 188 to 190 °C.
Still for that read-out and setting: for `COCCNC(=O)c1ccc(C)c(-n2c(C)cc(OCc3ccccc3CNC(=O)Nc3cc(C(C)(C)C)nn3-c3cccc(OCCO)c3)c(Cl)c2=O)c1` [Example 173] the value was 143 to 145 °C.
As to `COC(=O)c1ccc(C)c(-n2c(C)cc(OCc3ccccc3CNC(=O)Nc3cc(C(C)(C)C)nn3-c3cccc(OCCO)c3)c(Cl)c2=O)c1` [Example 130, 3-{4-[2-(3-{5-tert-Butyl-2-[3-(2-hydroxy-ethoxy)-phenyl]-2H-pyrazol-3-yl}-ureidomethyl)-benzyloxy]-3-chloro-6-methyl-2-oxo-2H-pyridin-1-yl}-4-methyl-benzoic acid methyl ester], the melting point was 147 to 148 °C.
In turn, `COC(=O)c1ccc(C)c(-n2c(C)cc(OCc3ccccc3CNC(=O)Nc3cc(C(C)(C)C)nn3-c3ccc(O)cc3)c(Cl)c2=O)c1` [Example 135, 3-[4-(2-{3-[5-tert-butyl-2-(4-hydroxy-phenyl)-2H-pyrazol-3-yl]-ureidomethyl}-benzyloxy)-3-chloro-6-methyl-2-oxo-2H-pyridin-1-yl]-4-methyl-benzoic acid methyl ester] registered a melting point of 199 to 200 °C.
In turn, `CNC(=O)CNC(=O)c1ccc(C)c(-n2c(C)cc(OCc3ccccc3CNC(=O)Nc3cc(C(C)(C)C)nn3-c3ccc(Cl)c(O)c3)c(Cl)c2=O)c1` [Example 167, 3-[4-(2-{3-[5-tert-Butyl-2-(4-chloro-3-hydroxy-phenyl)-2H-pyrazol-3-yl]-ureidomethyl}-benzyloxy)-3-chloro-6-methyl-2-oxo-2H-pyridin-1-yl]-4-methyl-N-methylcarbamoylmethyl-benzamide] gave a melting point of 179 to 181 °C. The IC50 on p38α is 1.7 nM.
On to `CNC(=O)c1ccc(C)c(-n2c(C)cc(OCc3ccccc3CNC(=O)Nc3cc(C(C)(C)C)nn3-c3ccc(Cl)c(O)c3)c(Cl)c2=O)c1` [Example 161, 3-[4-(2-{3-[5-tert-butyl-2-(4-chloro-3-hydroxy-phenyl)-2H-pyrazol-3-yl]-ureidomethyl}-benzyloxy)-3-chloro-6-methyl-2-oxo-2H-pyridin-1-yl]-4,N-dimethyl-benzamide], for which the melting point is 201 to 203 °C.
